Publication PMC9745797 (2022)

Key:
[1] = system: 5′-d(CGCATATATGCG)-3′ (DNA, duplex) CGCATATATGCG; assay: native nESI-MS; conditions: K+ 100 μM (KCl), NH4+ 150 mM; 150 mM ammonium acetate, pH 7, 1% DMSO; 9 μM DNA, 100 μM compound
[2] = system: 5′-d(CGCATATATGCG)-3′ (DNA, duplex) CGCATATATGCG; assay: 1H NMR titration and NOESY; conditions: 50 mM phosphate pH 7.4, 9:1 H2O/D2O, 298 K (cooled to 274 K); 1 mM duplex; slow exchange

binding [1]: yes
SMILES: Cn1cc(NC(=O)c2cc(NC(=O)c3ccc(/C=C/c4cnc5ccccc5c4)cc3)cn2C)cc1C(=O)NCCN1CCOCC1
binding [2]: yes
